Results taken from patent US20220160669A1, “PARENTERAL NUTRITION FORMULATION” (BAXTER INTERNATIONAL INC., priority 2020, published 2022).

Legend:
[1] = system: pro-inflammatory cytokines I1-1β, I1-6, TNF-α; experiment: Jejunal cytokine concentration, pro-inflammatory; type: in vivo, pig; details: compared to standard PN (s-PN)
From the text: (§1) Neonatal Yorkshire/Landrace cross bred piglets (n=72; six at a time from the same litter, repeating 12 times) were obtained from Oak Hill Genetics (Ewing, Ill.) after 48-hour sow reared for colostrum consumption and iron supplementation.
(§2) The influence of the respective supplements on inflammation was investigated by determining Il-6, Il-1beta, TNF-alpha and Il-10 serum levels in the intervention groups compared to EN and PN according to Milo et al., Effects of Short-Chain Fatty Acid-Supplemented Total Parenteral Nutrition on Intestinal Pro-Inflammatory Cytokine Abundance. Digestive Diseases and Sciences 2002; 47:2049-2055. Jejunal and ileal samples were homogenized in double-distilled water, and the Bradford protein assay (Biorad, Hercules, Calif., USA) was performed on homogenate and plasma samples. Protein (30 μg) from each sample was denatured by boiling, and proteins were separated by size using 12.5% sodium dodecyl sulfate polyacrylamide gel electrophoresis. Separated proteins were transferred to polyvinylidene difluoride membranes (Biorad) using a semidry transfer apparatus (Biorad). Western blot analysis for TNF-alpha, IL-1beta, Il-10 and IL-6 was performed using porcine-specific polyclonal antibodies (Endogen, Woburn, Mass., USA). A mouse anti-pig monoclonal TNF-alpha antibody was used to detect TNF-alpha ([…]). Rabbit anti-pig polyclonal antibodies specific for IL-1beta and IL-6 were used to detect IL-1beta (17,500 kDa), Il-10 (18,600 kDa) and IL-6 (26,000 kDa). Membranes were developed using the Opti-4CN kit (Biorad) and photographed using the FOTO/Analyst Image Analysis System (Fotodyne, Inc., Hartland, Wis., USA). Densitometry of TNF-alpha, IL-1beta, IL-6, and Il-10 was performed using Collage Image Analysis Software 4.0 (Fotodyne, Inc.). Results are shown in FIG. 15 (Il-6), FIG. 16 (Illbeta), FIG. 17 (TNF-alpha) and FIG. 18 (Il-10).

[2] = system: anti-inflammatory cytokines I1-10; experiment: Jejunal cytokine concentration, anti-inflammatory; type: in vivo, pig; parameters: key: +++ indicate P < 0.01; ++ indicates P < 0.05; + indicates positive trends; = denotes no significant P value; − denotes negative trends; details: compared to standard PN (s-PN)
From the text: as §1, §2

[3] = system: pro-inflammatory cytokines I1-1β, I1-6, TNF-α; experiment: Ileal cytokine concentration, pro-inflammatory; type: in vivo, pig; parameters: key: +++ indicate P < 0.01; ++ indicates P < 0.05; + indicates positive trends; = denotes no significant P value; − denotes negative trends; details: compared to standard PN (s-PN)
From the text: as §1, §2

[4] = system: anti-inflammatory cytokines I1-8, I1-10; experiment: Ileal cytokine concentration, anti-inflammatory; type: in vivo, pig; parameters: key: +++ indicate P < 0.01; ++ indicates P < 0.05; + indicates positive trends; = denotes no significant P value; − denotes negative trends; details: compared to standard PN (s-PN)
From the text: as §1, §2

Il-6 = experiment: Serum cytokine quantification, Il-6; type: in vivo, pig; details: 10 mmol/L TPN (Group C)
From the text: as §1
as §2, with “Rabbit anti-pig polyclonal antibodies specific for IL-1beta and IL-6 were used to detect IL-1beta (17,500 kDa), Il-10 (18,600 kDa) and IL-6 (26,000 kDa). Membranes were developed using the Opti-4CN kit (Biorad) and photographed using the FOTO/Analyst Image Analysis System (Fotodyne, Inc., Hartland, Wis., USA). Densitometry of TNF-alpha, IL-1beta, IL-6, and Il-10 was performed using Collage Image Analysis Software 4.0 (Fotodyne, Inc.). Results are shown in FIG. 15 (Il-6), FIG. 16 (Illbeta), FIG. 17 (TNF-alpha) and FIG. 18 (Il-10).” left out

Il-1beta = experiment: Serum cytokine quantification, Il-1beta; type: in vivo, pig; details: 10 mmol/L TPN (Group C)
From the text: as §1
as §2, with “Rabbit anti-pig polyclonal antibodies specific for IL-1beta and IL-6 were used to detect IL-1beta (17,500 kDa), Il-10 (18,600 kDa) and IL-6 (26,000 kDa). Membranes were developed using the Opti-4CN kit (Biorad) and photographed using the FOTO/Analyst Image Analysis System (Fotodyne, Inc., Hartland, Wis., USA). Densitometry of TNF-alpha, IL-1beta, IL-6, and Il-10 was performed using Collage Image Analysis Software 4.0 (Fotodyne, Inc.). Results are shown in FIG. 15 (Il-6), FIG. 16 (Illbeta), FIG. 17 (TNF-alpha) and FIG. 18 (Il-10).” left out

TNF-alpha = experiment: Serum cytokine quantification, TNF-alpha; type: in vivo, pig; details: 10 mmol/L TPN (Group C)
From the text: as §1
as §2, with “Rabbit anti-pig polyclonal antibodies specific for IL-1beta and IL-6 were used to detect IL-1beta (17,500 kDa), Il-10 (18,600 kDa) and IL-6 (26,000 kDa). Membranes were developed using the Opti-4CN kit (Biorad) and photographed using the FOTO/Analyst Image Analysis System (Fotodyne, Inc., Hartland, Wis., USA). Densitometry of TNF-alpha, IL-1beta, IL-6, and Il-10 was performed using Collage Image Analysis Software 4.0 (Fotodyne, Inc.). Results are shown in FIG. 15 (Il-6), FIG. 16 (Illbeta), FIG. 17 (TNF-alpha) and FIG. 18 (Il-10).” left out

[5] = system: Neonatal Yorkshire/Landrace cross bred piglets; experiment: Duodenal mucosal resistance (Ussing chamber), PN-fed neonatal piglets; type: in vivo, pig; parameters: key: + denotes a positive effect (compared to standard PN); ++ a very positive effect; − denotes no difference; details: 10 days, compared to standard PN
[6] = cited from earlier work
[7] = system: metastatic colorectal cancer patients; details: aqueous solution, pH 7.7, phase I clinical trial; cited from earlier work

Compound | Jejunal Cytokine Concentration (less pro-inflammatory cytokines I1-1β, I1-6, TNF-α) ([1]; 10 mmol/L) | Jejunal Cytokine Concentration (more anti-inflammatory cytokines I1-8, I1-10) ([2]; 10 mmol/L) | Ileal Cytokine Concentration (less pro-inflammatory cytokines I1-1β, I1-6, TNF-α) ([3]; 10 mmol/L) | Ileal Cytokine Concentration (more anti-inflammatory cytokines I1-8, I1-10) ([4]; 10 mmol/L) | serum levels of Il-6 (FIG. 15) (Il-6) | serum levels of Il1-beta (FIG. 16) (Il-1beta) | serum levels of TNF-alpha (FIG. 17) (TNF-alpha) | Tight junctions ([5]; 10 mmol/L in PN) | clearance rate ([6]; human, in vivo) [mL/min/kg] | steady state concentration ([6]; infusion rate of 2000 mg/kg/day, patients with hemoglobinopathy) [mg/L] | tolerated dose [7] [g/kg/day] | Jejunal Cytokine Concentration (less pro-inflammatory cytokines I1-1β, I1-6, TNF-α) ([1]; 30 mmol/L) | Jejunal Cytokine Concentration (more anti-inflammatory cytokines I1-8, I1-10) ([2]; 30 mmol/L) | Ileal Cytokine Concentration (less pro-inflammatory cytokines I1-1β, I1-6, TNF-α) ([3]; 30 mmol/L) | Ileal Cytokine Concentration (more anti-inflammatory cytokines I1-8, I1-10) ([4]; 30 mmol/L) | Tight junctions ([5]; 30 mmol/L in PN)
L-arginine, butanoate (3:4) [Arginine butyrate] | +++ (+++ indicate P < 0.01) | ++ (++ indicates P < 0.05) | ++ (++ indicates P < 0.05) | +^4 | significantly lower than in the standard PN group | significantly lower than in the standard PN group | lower than in the other Study (or intervention) Groups | ++ | 93.6 ± 31.9 | 15.7 ± 4.8 | 3 |  |  |  |  | 
CCCCCCCCCCCCCCCC(=O)OCC(COC(=O)CCC)OC(=O)CCCCCCCCCCCCCCC (stereo not shown) [1,2-Dipalmitoyl 3-butyryl glycerol] |  |  |  |  |  |  |  | − |  |  |  |  |  |  |  | 
CCCC(=O)OCC(COC(=O)CCC)OC(=O)CCC [Tributyrin] | ++ (++ indicates P < 0.05) | = | = | − |  |  |  | − |  |  |  | ++ (++ indicates P < 0.05) | + | + | + | −
